We go through 19 molecules from patent US10508109B2 (priority 2015, dated 2019).

The test system of experiment [1] is A549. Put plainly: Cell-based assay, anti-proliferative activity (Cell Counting Kit-8, 72 hours). As to conditions: Homo sapiens; A549 cells, 72 hours, Cell Counting Kit-8; read-out: IC50 (μM) A549. The method in brief:
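Growth read-out after inhibitor treatment of plated cells; potency expressed as IC50.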

For experiment [2], the system named is CCD-18Co. Described as above. As to conditions: Homo sapiens; CCD-18Co cells, 72 hours, Cell Counting Kit-8; read-out: IC50 (μM) CCD-18Co. The method in brief: (§1)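 Anti-proliferative IC50 obtained from 96-well cultures treated 72 h with inhibitor at 0–100 micro-M, growth assessed by a CCK-8 colorimetric readout.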
A general note: Tetrazolium assays rely on reduction of a dye to a coloured formazan, in cell work by metabolically active cells.

For experiment [3], the system named is HCT-116. Described as above. As to conditions: Homo sapiens; HCT-116 cells, 72 hours, Cell Counting Kit-8; read-out: IC50 (μM) HCT-116. The method in brief:
as §1

Experiment [4] deals with HFL1. The experiment is described as above. Particulars: Homo sapiens; HFL1 cells, 72 hours, Cell Counting Kit-8; read-out: IC50 (μM) HFL1. The method in brief:
as §1

Experiment [5] concerns PC14. The description is as above. Particulars: Homo sapiens, PC-14; PC14 cells, 72 hours, Cell Counting Kit-8; read-out: IC50 (μM) PC14. The method in brief: as §1
Experiment [6] has as its target T1, SUV39H2 (Homo sapiens (Human), UniProt Q9H5I1). Particulars: read-out: IC50 (μM) Suv 39H2 assay; enzyme assay.
The target in experiment [7] is T1, SUV39H2. In words: biochemical. Format: biochemical. Particulars: 3H-SAM 100 nM, H3 Histone Peptide 350 nM, room temperature 3 hours. Here is the method: Assay buffer (4 μL) was added into all the wells, including test compound and control wells (except for Sinefungin control wells), using the Multidrop Combi. The plate was centrifuged at 1000 rpm for 1 min. […] SUV39H2 (8 μL, final conc: optimized for each lot of the enzyme based on specific activity) was added by using the Multidrop Combi. The assay plate was centrifuged at 1000 rpm for 1 min. Assay buffer was used as background control, and incubated at room temperature for 3 hours. The reaction was stopped with 20 μL of 2.5 mg/mL Streptavidin SPA beads (final conc. 50 μg/well) in buffer using the Multidrop Combi and centrifuged for 1 min. The plate was loaded into the Trilux-Microbeta counter and a delayed read of 10 hours was made. The radioactive signal was measured at 1 min/well. Sinefungin and the internal standard compound were used as tool compounds to determine assay performance.
• The following calculations were made using the obtained CPM raw data: Software used: XLFit from IDBS.
For each test plate the following results were calculated: • Average, Standard Deviation, and % CV of Background Controls • Average, Standard Deviation, and % CV of Positive Controls • Z′ value of the plate • IC50 values of standard and test compounds (in nM) • R^2 value of fitted concentration response curve • Hill slope coefficient of fitted concentration response curve • Signal to Noise Ratio

Usually IC50 stands for the concentration needed to halve the response being measured.

Like-named read-outs stand apart in the source and are kept apart here.

T1 sequence (Q9H5I1 whole entry): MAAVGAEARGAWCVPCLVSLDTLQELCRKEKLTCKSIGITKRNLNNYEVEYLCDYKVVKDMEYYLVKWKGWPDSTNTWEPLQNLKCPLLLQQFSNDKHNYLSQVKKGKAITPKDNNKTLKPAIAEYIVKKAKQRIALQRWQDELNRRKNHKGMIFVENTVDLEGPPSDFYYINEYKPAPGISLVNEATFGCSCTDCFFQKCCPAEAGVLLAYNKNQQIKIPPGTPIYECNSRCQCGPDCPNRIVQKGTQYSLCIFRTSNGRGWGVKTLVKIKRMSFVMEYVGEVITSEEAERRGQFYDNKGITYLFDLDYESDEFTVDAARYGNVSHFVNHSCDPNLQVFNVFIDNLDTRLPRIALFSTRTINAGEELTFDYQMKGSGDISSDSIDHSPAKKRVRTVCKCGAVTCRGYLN

With `COc1cc(OC)c(-c2cn3ccc(N4CCN(Cc5ccncc5)CC4)cc3n2)cc1Cl` [Example 292, 2-(5-chloro-2,4-dimethoxyphenyl)-7-(4-(pyridin-4-ylmethyl)piperazin-1-yl)imidazo[1,2-a]pyridine], the IC50 in experiment [1] was 1.2 µM; in experiment [2] it was 1.3 µM; in experiment [3] it was 1.3 µM; in experiment [4], 1.2 µM; in experiment [5] it was 0.68 µM; in experiment [6] it was 0.00637 µM.

Take `COc1cc(OC)c(-c2cn3ccc(N4CCN(c5ccc(C#N)cn5)CC4)cc3n2)cc1Cl` [Example 293, 6-(4-(2-(5-chloro-2,4-dimethoxyphenyl)imidazo[1,2-a]pyridin-7-yl)-piperazin-1-yl)nicotinonitrile]: the IC50 in experiment [1] came out at 0.67 µM; in experiment [2], 0.62 µM; in experiment [3], 0.33 µM; in experiment [4], 1.3 µM; in experiment [5], 1 µM; in experiment [6], 0.0226 µM.

On to `COc1cc(OC)c(-c2cn3ccc(N4CCN(c5ccnc(N6CCOCC6)n5)CC4)cc3n2)cc1Cl` [Example 294, 4-(4-(4-(2-(5-chloro-2,4-dimethoxyphenyl)imidazo[1,2-a]pyridin-7-yl)-piperazin-1-yl)pyrimidin-2-yl)morpholine], for which the IC50 in experiment [1] amounted to 1.1 µM; in experiment [2], 1.3 µM; in experiment [3], 0.78 µM; in experiment [4], 2.3 µM; in experiment [5] it was 1 µM; in experiment [6], 0.0283 µM.

As to `COc1cc(OC)c(-c2cn3ccc(N4CCN(c5ccnc(N6CCCCC6)n5)CC4)cc3n2)cc1Cl` [Example 295, 2-(5-chloro-2,4-dimethoxyphenyl)-7-(4-(2-(piperidin-1-yl)pyrimidin-4-yl)piperazin-1-yl)imidazo[1,2-a]pyridine], the IC50 turned out to be 0.89 µM in experiment [1]; 1.3 µM in experiment [2]; 0.93 µM in experiment [3]; 1.4 µM in experiment [4]; 0.93 µM in experiment [5]; 0.0598 µM in experiment [6].

`COc1cc(OC)c(-c2cn3ccc(N4CCN(c5cccnc5)CC4)cc3n2)cc1Cl` [Example 296, 2-(5-chloro-2,4-dimethoxyphenyl)-7-(4-(pyridin-3-yl)piperazin-1-yl)imidazo[1,2-a]pyridine]: the IC50 in experiment [1] was 0.66 µM; in experiment [2], 0.79 µM; in experiment [3], 0.56 µM; in experiment [4], 0.73 µM; in experiment [5] it was 0.64 µM; in experiment [6] it was 0.013 µM.

On to `COc1cc(OC)c(-c2cn3ccc(N4CCN(c5ccnc(N(C)C)n5)CC4)cc3n2)cc1Cl` [Example 297, 4-(4-(2-(5-chloro-2,4-dimethoxyphenyl)imidazo[1,2-a]pyridin-7-yl)-piperazin-1-yl)-N,N-dimethylpyrimidin-2-amine], for which the IC50 stood at 0.43 µM in experiment [1]; 0.72 µM in experiment [2]; 0.33 µM in experiment [3]; 0.65 µM in experiment [4]; 0.47 µM in experiment [5]; 0.0342 µM in experiment [6].

On to `COc1cc(OC)c(-c2cn3ccc(N4CC[C@H](NCc5ccccn5)C4)cc3n2)cc1Cl` [Example 299, (S)-1-(2-(5-chloro-2,4-dimethoxyphenyl)imidazo[1,2-a]pyridin-7-yl)-N-(pyridin-2-ylmethyl)pyrrolidin-3-amine], for which the IC50 in experiment [1] amounted to 5.3 µM; in experiment [2] it was 5.5 µM; in experiment [3], 4.5 µM; in experiment [4] it was 6.2 µM; in experiment [5], 3.5 µM; in experiment [6], 0.00721 µM.

In the case of `COc1cc(OC)c(-c2cn3ccc(N4CC[C@H](NCc5cccnc5)C4)cc3n2)cc1Cl` [Example 300, (S)-1-(2-(5-chloro-2,4-dimethoxyphenyl)imidazo[1,2-a]pyridin-7-yl)-N-(pyridin-3-ylmethyl)pyrrolidin-3-amine], the IC50 was 6 µM in experiment [1]; 6.1 µM in experiment [2]; 4.7 µM in experiment [3]; 7.1 µM in experiment [4]; 3.5 µM in experiment [5]; 0.0127 µM in experiment [6].

On to `COc1cc(OC)c(-c2cn3ccc(N4CC[C@H](NCc5ccccc5)C4)cc3n2)cc1Cl` [Example 301, (S)—N-benzyl-1-(2-(5-chloro-2,4-dimethoxyphenyl)imidazo[1,2-a]pyridin-7-yl)pyrrolidin-3-amine], for which the IC50 in experiment [1] came to 1.4 µM; in experiment [2] it was 1.1 µM; in experiment [3], 0.79 µM; in experiment [4] it was 0.69 µM; in experiment [5], 1.5 µM; in experiment [6] it was 0.0107 µM.

For the molecule `COc1cc(OC)c(-c2cn3ccc(N4CC[C@H](NCc5ccc(F)cc5)C4)cc3n2)cc1Cl` [Example 302, (S)-1-(2-(5-chloro-2,4-dimethoxyphenyl)imidazo[1,2-a]pyridin-7-yl)-N-(4-fluorobenzyl)pyrrolidin-3-amine], the IC50 was found to be 1.5 µM in experiment [1]; 1.1 µM in experiment [2]; 0.92 µM in experiment [3]; 0.72 µM in experiment [4]; 1.4 µM in experiment [5]; 0.0153 µM in experiment [6].

On to `COc1cc(OC)c(-c2cn3ccc(N4CC[C@H](NCc5ccc(C(F)(F)F)cc5)C4)cc3n2)cc1Cl` [Example 303, (S)-1-(2-(5-chloro-2,4-dimethoxyphenyl)imidazo[1,2-a]pyridin-7-yl)-N-(4-(trifluoromethyl)benzyl)pyrrolidin-3-amine], for which the IC50 in experiment [1] was found to be 1 µM; in experiment [2] it was 0.86 µM; in experiment [3], 0.7 µM; in experiment [4], 0.68 µM; in experiment [5], 0.95 µM; in experiment [6], 0.0278 µM.

Take `COc1cc(OC)c(-c2cn3ccc(N4CC[C@H](NCc5ccc([N+](=O)[O-])cc5)C4)cc3n2)cc1Cl` [Example 304, (S)-1-(2-(5-chloro-2,4-dimethoxyphenyl)imidazo[1,2-a]pyridin-7-yl)-N-(4-nitrobenzyl)pyrrolidin-3-amine]: the IC50 in experiment [1] was determined as 0.87 µM; in experiment [2], 0.49 µM; in experiment [3] it was 0.52 µM; in experiment [4], 0.7 µM; in experiment [5] it was 0.88 µM; in experiment [6], 0.00888 µM.

With `COc1cc(OC)c(-c2cn3ccc(N4CC[C@H](NCc5ccc(C)cc5)C4)cc3n2)cc1Cl` [Example 305, (S)-1-(2-(5-chloro-2,4-dimethoxyphenyl)imidazo[1,2-a]pyridin-7-yl)-N-(4-methylbenzyl)pyrrolidin-3-amine], the IC50 in experiment [1] turned out to be 1.1 µM; in experiment [2], 0.82 µM; in experiment [3], 0.59 µM; in experiment [4] it was 0.67 µM; in experiment [5], 0.99 µM; in experiment [6], 0.0117 µM.

Regarding `COc1ccc(CN[C@H]2CCN(c3ccn4cc(-c5cc(Cl)c(OC)cc5OC)nc4c3)C2)cc1` [Example 306, (S)-1-(2-(5-chloro-2,4-dimethoxyphenyl)imidazo[1,2-a]pyridin-7-yl)-N-(4-methoxybenzyl)pyrrolidin-3-amine], the IC50 in experiment [1] turned out to be 1.3 µM; in experiment [2], 1.4 µM; in experiment [3], 0.69 µM; in experiment [4], 0.72 µM; in experiment [5], 1.4 µM; in experiment [6], 0.00881 µM.

Consider `COc1cc(OC)c(-c2cn3ccc(N4CCN(c5ccnc(NCCO)n5)CC4)cc3n2)cc1Cl` [Example 334, 2-((4-(4-(2-(5-chloro-2,4-dimethoxyphenyl)imidazo[1,2-a]pyridin-7-yl)piperazin-1-yl)pyrimidin-2-yl)amino)ethanol], for which the IC50 in experiment [7] came out at 21.3 nM.

With `COc1cc(OC)c(-c2cn3ccc(N4CCN(Cc5cncc(C#N)c5)CC4)cc3n2)cc1Cl` [Example 339, 5-((4-(2-(5-chloro-2,4-dimethoxyphenyl)imidazo[1,2-a]pyridin-7-yl)piperazin-1-yl)methyl)nicotinonitrile], the IC50 in experiment [7] was 35.7 nM.

Consider `COc1cc(OC)c(-c2cn3ccc(N[C@H]4CC[C@@H](N(C)Cc5ccc(F)cc5)CC4)cc3n2)cc1Cl` [Example 342], for which the IC50 in experiment [7] amounted to 38.8 nM.

In experiment [7], `COc1cc(OC)c(-c2cn3ccc(N[C@H]4CC[C@@H](N(C)Cc5ccccc5F)CC4)cc3n2)cc1Cl` [Example 347, bis(2,2,2-trifluoroacetate)] showed an IC50 of 24.8 nM.

The molecule `COc1cc(OC)c(-c2cn3ccc(N4CCN(c5cnc(N6CCC(NS(=O)(=O)C7CC7)CC6)nc5)CC4)cc3n2)cc1Cl` [Example 393, N-(1-(5-(4-(2-(5-chloro-2,4-dimethoxyphenyl)imidazo[1,2-a]pyridin-7-yl)piperazin-1-yl)pyrimidin-2-yl)piperidin-4-yl)cyclopropanesulfonamide] displayed an IC50 in experiment [7] of 28.3 nM.
